Laboratory results published in ChEMBL document CHEMBL1151225, “New neolignans that inhibit DNA polymerase beta lyase” (J Nat Prod, 2004).

Target: DNA polymerase beta (Homo sapiens, UniProt P06746)
Experiment: Inhibition of DNA polymerase beta lyase activity

SMILES	IC50 [µM]
COc1c(/C=C/CO)cc2c(c1OC)OCO2	> 50
C=CC[C@]12C[C@@H](OC)C(=O)C(OC)=C1O[C@H](c1ccc3c(c1)OCO3)[C@H]2C	12.3
C=CC[C@@]12C=C(OC)C(=O)[C@](OC)([C@H](c3ccc4c(c3)OCO4)[C@H]1C)[C@@H]2O	> 50
C=CC[C@@]12C=C(O)C(=O)[C@](O)([C@H](c3ccc4c(c3)OCO4)[C@H]1C)[C@@H]2O	> 50
C=CCc1c(OC)cc2c(c1OC)OCO2	34.2
C=CCc1cc2c(c(OC)c1OC)OCO2 [DILLAPIOLE]	> 50
C=CC[C@@]12C[C@H](OC)[C@@H](O)[C@@](OC)([C@@H]1O)[C@@H](c1ccc3c(c1)OCO3)[C@@H]2C [CANELLIN A]	26.5
C=CCc1c(OC)cc(OC)c2c1OCO2	18.6
COc1cc2c(c(OC)c1/C=C/CO)OCO2	43.5
C=CC[C@@]12C=C(O)C(=O)[C@](OC)([C@H](c3ccc4c(c3)OCO4)[C@H]1C)[C@@H]2O	21.6
C=CC[C@@]12C=C(OC)C(=O)[C@](O)([C@H](c3ccc4c(c3)OCO4)[C@H]1C)[C@@H]2O	15.3
C=CC[C@@]12CC(=O)[C@@H](O)[C@@](OC)([C@@H]1O)[C@@H](c1ccc3c(c1)OCO3)[C@@H]2C [CANELLIN C]	32.4
